Experimental data reported in PMC6733504, “Effects of flavoring compounds used in electronic cigarette refill liquids on endothelial and vascular function” (PLoS ONE, 2019).
Read-outs that look alike come from different tables or passages of the source.

Tests used:
endothelial cells [1] = assay: LDH release (membrane integrity); conditions: 1 mM, 60 minutes; maximum = 1% Triton
Description: (§2) To test for membrane integrity, endothelial cells were assayed for release of lactate dehydrogenase (LDH) into the culture medium. Subsequent to incubation with flavoring compounds (1 mM each) for 1 hour, 20-μl aliquots of the culture media were mixed with 200 μl of reagent buffer (1 mM pyruvate and 0.1 mM NAD^+ in PBS). The decrease in light absorbance at 340 nm was monitored using a diode array spectrophotometer (Hewlett Packard 8452A). Maximum LDH release was determined by treating the cells with 1% Triton X-100.

[2] = tested on: Porcine aortic endothelial cells (endogenous NO/cGMP pathway); assay: A23187 (Ca2+ ionophore)-induced endothelial cGMP formation; assay type: cell-based
Description: (§1) Porcine aortic endothelial cells were isolated as described and cultured at 37°C, 5% CO2 for up to 3 passages in Dulbecco´s modified Eagle´s medium, containing 10% heat-inactivated fetal calf serum (FCS), 100 U/ml penicillin, 0.1 mg/ml streptomycin, and 1.25 μg/ml amphotericin B. Prior to experiments, cells were subcultured into 24-well plates (determination of cGMP formation) or 6-well plates (determination of L-citrulline formation).
Accumulation of intracellular 3',5'-cyclic GMP (cGMP) was determined as previously described. Briefly, endothelial cells were washed and preincubated with the compounds to be tested for 15 minutes at 37°C in 50 mM Tris buffer, pH 7.4, containing 100 mM NaCl, 5 mM KCl, 1 mM MgCl2, 2.5 mM CaCl2, 1 mM 3-isobutyl-1-methylxanthine, and 1 μM indomethacin. Reactions were started by addition of the Ca^2+ ionophore A 23187 (final concentration 1 μM) or the NO donor DEA/NO (final concentration 1 μM) and terminated after 4 minutes by removal of the incubation medium and addition of 0.01 M HCl. Within 1 h, intracellular cGMP was completely released into the supernatant and measured by radioimmunoassay.

[3] = rats, cited from earlier work
endothelial cells [4] = conditions: pig, 1 h, 1 mM
Description: as §2

[5] = Estimated plasma concentration upon inhalation of cinnamaldehyde-containing aerosol; set-up: species or system human; conditions: 10 ml of 6.9 mM liquid, plasma volume 3 liters, 100% bioavailability, no distribution, metabolism or clearance
[6] = tested on: Porcine aortic endothelial cells (endothelial sGC); assay: DEA/NO-induced endothelial cGMP formation; assay type: cell-based; conditions: for DEA/NO-stimulated endothelial cGMP formation: 1 mM
Description: as §1
Accumulation of intracellular 3',5'-cyclic GMP (cGMP) was determined as previously described. […] Reactions were started by addition of the Ca^2+ ionophore A 23187 (final concentration 1 μM) or the NO donor DEA/NO (final concentration 1 μM) and terminated after 4 minutes by removal of the incubation medium and addition of 0.01 M HCl. Within 1 h, intracellular cGMP was completely released into the supernatant and measured by radioimmunoassay.

Structure (SMILES) | LDH release (% of maximum) (endothelial cells [1]) | Concentration inhibiting Ca2+-stimulated endothelial cGMP accumulation [2] [mM] | A23187-induced cGMP formation ([2]; flavoring 1 mM, 15 min preincubation, 1 μM A23187 for 4 min (Fig 1A)) | Maximal plasma concentration ([3]; intravenous bolus 25 mg/kg) [µM] | Maximal plasma concentration ([3]; oral 500 mg/kg) | LDH release (% of maximum) (endothelial cells [4]) | Estimated plasma concentration [5] [µM] | DEA/NO-stimulated endothelial cGMP formation ([6]; incubation for 15 minutes (Fig 2B)) | DEA/NO-stimulated endothelial cGMP formation ([6]; incubation for 75 minutes (Fig 2B)) | DEA/NO-induced cGMP formation ([6]; flavoring 1 mM, 15 min preincubation, 1 μM DEA/NO for 4 min (Fig 1B))
C=CCc1ccc(O)c(OC)c1 [Eugenol, 2-Methoxy-4-(prop-2-en-1-yl)phenol] | 0.4±0.23 % of maximum | – | – | – | – | – | – | – | – | –
O=C/C=C/c1ccccc1 [Cinnamaldehyde, (2E)-3-Phenylprop-2-enal] | – | ≥ 0.3 | about 35 % of controls | 20 | about 2 μM | 1.8±0.50 % of maximum | 23 | 25.3±3.9 % of controls | 10.4±2.4 % of controls | about 35 % of controls
